Experimental data published in patent US8168592B2 (Amgen Inc., priority 2005, dated 2012).
Square brackets hold non-standard residues; d marks the D form. Peptide text beside a SMILES is read from it. Oic = O=C(O)[C@@H]1C[C@@H]2CCCC[C@@H]2N1; Phe(4-I) = N[C@@H](Cc1ccc(I)cc1)C(=O)O; 1Nal = N[C@@H](Cc1cccc2ccccc12)C(=O)O; 2Nal = N[C@@H](Cc1ccc2ccccc2c1)C(=O)O; hArg = N=C(N)NCCCC[C@H](N)C(=O)O; Tic = O=C(O)[C@@H]1Cc2ccccc2CN1; Cit = NC(=O)NCCC[C@H](N)C(=O)O

Molecular target: T1, CGRP1 receptor (Homo sapiens, UniProt O60894+Q16602)
T1 construct: SK-N-MC cells express CRLR and RAMP1, which form CGRP1 receptor; endogenous in cells; host or cells: SK-N-MC human neuroblastoma cells
T1 sequence (Q16602 23-461): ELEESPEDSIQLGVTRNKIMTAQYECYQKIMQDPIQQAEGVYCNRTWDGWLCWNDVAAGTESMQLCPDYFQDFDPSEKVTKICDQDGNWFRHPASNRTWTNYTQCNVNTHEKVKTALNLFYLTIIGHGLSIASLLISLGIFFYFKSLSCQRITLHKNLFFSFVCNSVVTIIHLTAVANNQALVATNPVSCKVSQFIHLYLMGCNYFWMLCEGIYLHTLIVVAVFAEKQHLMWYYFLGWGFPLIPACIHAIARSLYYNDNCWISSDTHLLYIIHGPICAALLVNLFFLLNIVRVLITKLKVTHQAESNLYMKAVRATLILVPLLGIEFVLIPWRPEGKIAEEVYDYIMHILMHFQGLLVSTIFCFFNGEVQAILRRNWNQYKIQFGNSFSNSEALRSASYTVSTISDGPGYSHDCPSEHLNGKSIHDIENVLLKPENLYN
T1 sequence (O60894 27-148): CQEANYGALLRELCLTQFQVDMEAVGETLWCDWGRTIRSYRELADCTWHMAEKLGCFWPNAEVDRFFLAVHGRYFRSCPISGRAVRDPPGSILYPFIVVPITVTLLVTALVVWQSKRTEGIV
Assay: in vitro CGRP1 receptor mediated cAMP assay in SK-N-MC cells
Assay type: cell-based
Conditions: Table 2A; read-out: IC50
Experimental: The in vitro cAMP assay employed a human neuroblastoma-derived cell line (SK-N-MC). SK-N-MC cells express CRLR and RAMP1, which form CGRP1 receptor. CGRP1 receptor is a G-protein coupled receptor linked to the stimulatory G-protein, Gs. […] Briefly, two days before the assay, the cells were plated in 96-well plates in growth medium. On the day of the assay cells were rinsed with PBS followed by the addition of 60 μl of plasma free medium for 15 minutes at room temperature. […] The medium was then removed and the cells were lysed with 100 μl lysis buffer for 30 minutes at 37° C. for 30 minutes. Using a Tropix ELISA kit (Applied Biosystems, Foster City, Calif.), a cAMP-AP conjugate was diluted (1:100) and added (30 μl) to each well of a 96-well ELISA plate. An aliquot of the lysis buffer from the cell plate was then added to the ELISA plate followed by an aliquot of the cAMP antibody. This mixture was incubated for 1 hour at room temperature with gentle shaking. The ELISA plate was then washed 6× with wash buffer followed by the additions of a substrate enhancer. This mixture was incubated for 30 minutes at room temperature and then read on a MicroBeta Jet or EnVision plate reader. The results were analyzed using Prism (GraphPad).

Row | IC50 [nM] | SMILES
1 | 3.22 | CC(=O)N[C@@H](Cc1c[nH]c2ccccc12)C(=O)N[C@H](C(=O)N[C@H](C(=O)N[C@@H](Cc1c[nH]cn1)C(=O)N[C@@H](CCCNC(N)=O)C(=O)N[C@@H](CC(C)C)C(=O)N[C@@H](C)C(=O)NCC(=O)N[C@@H](CC(C)C)C(=O)N[C@@H](CC(C)C)C(=O)N[C@@H](CO)C(=O)N[C@@H](CCCNC(N)=O)C(=O)N[C@@H](CO)C(=O)NCC(=O)NCC(=O)N[C@H](C(=O)N[C@H](C(=O)N[C@@H](CCCCNC(=N)N)C(=O)N[C@@H](CCCCN)C(=O)N[C@@H](CC(N)=O)C(=O)N[C@@H](Cc1ccccc1)C(=O)N[C@H](C(=O)N1[C@H](C(=O)N[C@H](C(=O)N[C@@H](CC(=O)O)C(=O)N[C@H](C(=O)NCC(=O)N2CCC[C@H]2C(=O)N[C@@H](Cc2ccccc2)C(=O)N[C@@H](C)C(=O)N[C@@H](Cc2ccc3ccccc3c2)C(N)=O)C(C)C)[C@@H](C)O)C[C@@H]2CCCC[C@@H]21)C(C)C)C(C)C)C(C)C)[C@@H](C)O)C(C)C [compound 135] (Ac-WVTH[Cit]LAGLLS[Cit]SGGVV[hArg]KNFV[Oic]TDVGPFA[2Nal]-NH2)
2 | 2.34 | CC(=O)N[C@@H](Cc1c[nH]c2ccccc12)C(=O)N[C@H](C(=O)N[C@H](C(=O)N[C@@H](Cc1c[nH]cn1)C(=O)N[C@@H](CCCNC(N)=O)C(=O)N[C@@H](CC(C)C)C(=O)N[C@@H](C)C(=O)NCC(=O)N[C@@H](CC(C)C)C(=O)N[C@@H](CC(C)C)C(=O)N[C@@H](CO)C(=O)N[C@@H](CCCNC(N)=O)C(=O)N[C@@H](CO)C(=O)NCC(=O)NCC(=O)N[C@H](C(=O)N[C@H](C(=O)N[C@@H](CCCCNC(=N)N)C(=O)N[C@@H](CCCCN)C(=O)N[C@@H](CC(N)=O)C(=O)N[C@@H](Cc1ccc(I)cc1)C(=O)N[C@H](C(=O)N1[C@H](C(=O)N[C@H](C(=O)N[C@@H](CC(=O)O)C(=O)N[C@H](C(=O)NCC(=O)N2CCC[C@H]2C(=O)N[C@@H](Cc2ccc(I)cc2)C(=O)N[C@@H](C)C(=O)N[C@@H](Cc2ccccc2)C(N)=O)C(C)C)[C@@H](C)O)C[C@@H]2CCCC[C@@H]21)C(C)C)C(C)C)C(C)C)[C@@H](C)O)C(C)C [compound 136] (Ac-WVTH[Cit]LAGLLS[Cit]SGGVV[hArg]KN[Phe(4-I)]V[Oic]TDVGP[Phe(4-I)]AF-NH2)
3 | 2.66 | CC(=O)N[C@@H](Cc1c[nH]c2ccccc12)C(=O)N[C@H](C(=O)N[C@H](C(=O)N[C@@H](Cc1c[nH]cn1)C(=O)N[C@@H](CCCNC(N)=O)C(=O)N[C@@H](CC(C)C)C(=O)N[C@@H](C)C(=O)NCC(=O)N[C@@H](CC(C)C)C(=O)N[C@@H](CC(C)C)C(=O)N[C@@H](CO)C(=O)N[C@@H](CCCNC(N)=O)C(=O)N[C@@H](CO)C(=O)NCC(=O)NCC(=O)N[C@H](C(=O)N[C@H](C(=O)N[C@@H](CCCCNC(=N)N)C(=O)N[C@@H](CCCCN)C(=O)N[C@@H](CC(N)=O)C(=O)N[C@@H](Cc1ccc2ccccc2c1)C(=O)N[C@H](C(=O)N1CCC[C@H]1C(=O)N[C@H](C(=O)N[C@@H](CC(=O)O)C(=O)N[C@H](C(=O)NCC(=O)N1[C@H](C(=O)N[C@@H](Cc2ccccc2)C(=O)N[C@@H](C)C(=O)N[C@@H](Cc2ccccc2)C(N)=O)C[C@@H]2CCCC[C@@H]21)C(C)C)[C@@H](C)O)C(C)C)C(C)C)C(C)C)[C@@H](C)O)C(C)C [compound 137] (Ac-WVTH[Cit]LAGLLS[Cit]SGGVV[hArg]KN[2Nal]VPTDVG[Oic]FAF-NH2)
4 | 3.45 | CC(=O)N[C@@H](Cc1c[nH]c2ccccc12)C(=O)N[C@H](C(=O)N[C@H](C(=O)N[C@@H](Cc1c[nH]cn1)C(=O)N[C@@H](CCCNC(N)=O)C(=O)N[C@@H](CC(C)C)C(=O)N[C@@H](C)C(=O)NCC(=O)N[C@@H](CC(C)C)C(=O)N[C@@H](CC(C)C)C(=O)N[C@@H](CO)C(=O)N[C@@H](CCCNC(N)=O)C(=O)N[C@@H](CO)C(=O)NCC(=O)NCC(=O)N[C@H](C(=O)N[C@H](C(=O)N[C@@H](CCCCNC(=N)N)C(=O)N[C@@H](CCCCN)C(=O)N[C@@H](CC(N)=O)C(=O)N[C@@H](Cc1ccc2ccccc2c1)C(=O)N[C@H](C(=O)N1CCC[C@H]1C(=O)N[C@H](C(=O)N[C@@H](CC(=O)O)C(=O)N[C@H](C(=O)NCC(=O)N1[C@H](C(=O)N[C@@H](Cc2ccccc2)C(=O)N[C@@H](C)C(=O)N[C@@H](Cc2ccc3ccccc3c2)C(N)=O)C[C@@H]2CCCC[C@@H]21)C(C)C)[C@@H](C)O)C(C)C)C(C)C)C(C)C)[C@@H](C)O)C(C)C [compound 138] (Ac-WVTH[Cit]LAGLLS[Cit]SGGVV[hArg]KN[2Nal]VPTDVG[Oic]FA[2Nal]-NH2)
5 | 3.57 | CC(=O)N[C@@H](Cc1c[nH]c2ccccc12)C(=O)N[C@H](C(=O)N[C@H](C(=O)N[C@@H](Cc1c[nH]cn1)C(=O)N[C@@H](CCCNC(N)=O)C(=O)N[C@@H](CC(C)C)C(=O)N[C@@H](C)C(=O)NCC(=O)N[C@@H](CC(C)C)C(=O)N[C@@H](CC(C)C)C(=O)N[C@@H](CO)C(=O)N[C@@H](CCCNC(N)=O)C(=O)N[C@@H](CO)C(=O)NCC(=O)NCC(=O)N[C@H](C(=O)N[C@H](C(=O)N[C@@H](CCCCNC(=N)N)C(=O)N[C@@H](CCCCN)C(=O)N[C@@H](CC(N)=O)C(=O)N[C@@H](Cc1ccc2ccccc2c1)C(=O)N[C@H](C(=O)N1[C@H](C(=O)N[C@H](C(=O)N[C@@H](CC(=O)O)C(=O)N[C@H](C(=O)NCC(=O)N2[C@H](C(=O)N[C@@H](Cc3ccccc3)C(=O)N[C@@H](C)C(=O)N[C@@H](Cc3ccc4ccccc4c3)C(N)=O)C[C@@H]3CCCC[C@@H]32)C(C)C)[C@@H](C)O)C[C@@H]2CCCC[C@@H]21)C(C)C)C(C)C)C(C)C)[C@@H](C)O)C(C)C [compound 139] (Ac-WVTH[Cit]LAGLLS[Cit]SGGVV[hArg]KN[2Nal]V[Oic]TDVG[Oic]FA[2Nal]-NH2)
6 | 2.24 | CC(=O)N[C@@H](Cc1c[nH]c2ccccc12)C(=O)N[C@H](C(=O)N[C@H](C(=O)N[C@@H](Cc1c[nH]cn1)C(=O)N[C@@H](CCCNC(N)=O)C(=O)N[C@@H](CC(C)C)C(=O)N[C@@H](C)C(=O)NCC(=O)N[C@@H](CC(C)C)C(=O)N[C@@H](CC(C)C)C(=O)N[C@@H](CO)C(=O)N[C@@H](CCCNC(N)=O)C(=O)N[C@@H](CO)C(=O)NCC(=O)NCC(=O)N[C@H](C(=O)N[C@H](C(=O)N[C@@H](CCCCNC(=N)N)C(=O)N[C@@H](CCCCN)C(=O)N[C@@H](CC(N)=O)C(=O)N[C@@H](Cc1ccccc1)C(=O)N[C@H](C(=O)N1CCC[C@H]1C(=O)N[C@H](C(=O)N[C@@H](CC(=O)O)C(=O)N[C@H](C(=O)NCC(=O)N1CCC[C@H]1C(=O)N[C@@H](Cc1cccc2ccccc12)C(=O)N[C@@H](C)C(=O)N[C@@H](Cc1ccccc1)C(N)=O)C(C)C)[C@@H](C)O)C(C)C)C(C)C)C(C)C)[C@@H](C)O)C(C)C [compound 144] (Ac-WVTH[Cit]LAGLLS[Cit]SGGVV[hArg]KNFVPTDVGP[1Nal]AF-NH2)
7 | 10.1 | CC(=O)N[C@@H](Cc1c[nH]c2ccccc12)C(=O)N[C@H](C(=O)N[C@H](C(=O)N[C@@H](Cc1c[nH]cn1)C(=O)N[C@@H](CCCNC(N)=O)C(=O)N[C@@H](CC(C)C)C(=O)N[C@@H](C)C(=O)NCC(=O)N[C@@H](CC(C)C)C(=O)N[C@@H](CC(C)C)C(=O)N[C@@H](CO)C(=O)N[C@@H](CCCNC(N)=O)C(=O)N[C@@H](CO)C(=O)NCC(=O)NCC(=O)N[C@H](C(=O)N[C@H](C(=O)N[C@@H](CCCNC(=N)N)C(=O)N[C@@H](CCCCN)C(=O)N[C@@H](CC(N)=O)C(=O)N[C@@H](Cc1ccccc1)C(=O)N[C@H](C(=O)N1CCC[C@H]1C(=O)N[C@H](C(=O)N[C@@H](CC(=O)O)C(=O)N[C@H](C(=O)NCC(=O)N1CCC[C@H]1C(=O)N1Cc2ccccc2C[C@H]1C(=O)N[C@@H](C)C(=O)N[C@@H](Cc1ccccc1)C(N)=O)C(C)C)[C@@H](C)O)C(C)C)C(C)C)C(C)C)[C@@H](C)O)C(C)C [compound 146] (Ac-WVTH[Cit]LAGLLS[Cit]SGGVVRKNFVPTDVGP[Tic]AF-NH2)
